{
  "source": "patent US20030207830A1",
  "about": "“Mutant NDP kinases for antiviral nucleotide analog activation and therapeutic uses thereof” (priority 2002, published 2003)",
  "key": {"[1]": {"test_system": "E. coli BL21 (DE3) cells expressing L55H-N115S NDPK-A", "method": "(§12) The cells were grown at 37° C. in exponential phase in minimum medium. They were then complemented with various concentrations of AZT, and turbidity at 600 nm was measured after 4H. Transformation with the vector without insertion served as a control.\n(§13) Wild type and mutated NDP kinases were overexpressed in E. coli cells, and the sensitivity of exponentially growing cells to AZT was assayed after induction of NDP kinase expression by IPTG. The viability was estimated by plating and counting the cells.\n(§14) The sensitivity to AZT of E. coli transformed with NDP kinase expression vectors was evaluated. Bacteriea BL21 (DE3) (Stratagene) were transformed by heat shock with pJC20 vectors (Schaertl, 1998) expressing either the wild type NDPK-A (pJC20-HA), the mutant enzyme N115S (pJC20-N115S), the double mutant enzyme L55H-N115S (pJC20-L55H-N115S), or without insertion (pJC20). Bacteria were grown at 37° C. in M9 liquid medium supplemented with casaminoacids (Dilco ref.) in exponential phase, then 10 μM IPTG was added. After 1 hour, cells were complemented with AZT from 10^−7 mg/mL to 10^−4 mg/mL for 4 hours. One mL of bacteria was plated onto LB agar, incubated overnight at 37° C., and counted."}, "[2]": {"test_system": "E. coli BL21 (DE3) cells transformed with pJC20", "assay": "AZT sensitivity of E. coli transformed with plasmid without insertion", "type": "cell-based", "settings": "versus bacteria expressing NDPK-A, N115S-NDPK-A and L55H-N115S-NDPK-A, range tested", "method": "as §12, §13, §14"}, "[3]": {"target": "T1, human NDP kinase A (NDPK-A) variant L55H-N115S, SEQ ID NO: 3 (Homo sapiens, UniProt P15531, L55H/N115S)", "T1 construct": "made in house; host or cells: E. coli", "T1 sequence (P15531 whole entry L55H/N115S)": "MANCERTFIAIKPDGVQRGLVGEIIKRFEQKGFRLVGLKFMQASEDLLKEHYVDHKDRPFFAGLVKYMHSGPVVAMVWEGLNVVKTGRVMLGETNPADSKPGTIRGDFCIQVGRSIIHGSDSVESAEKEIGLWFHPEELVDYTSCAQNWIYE", "assay": "Pre-steady-state phosphotransfer, fluorescence stopped-flow", "type": "biochemical", "settings": "substitution of Asn 115 for Ser and Leu 55 for His", "description": "(§1) FIG. 3 depicts the catalytic efficiency of NDPK-A and mutants for nucleoside analogs. The rates of phosphorylation of pure recombinant NDP kinases (1 μM) were measured at the pre-steady state in a fluorescence stopped-flow with d4T-TP (10 to 80 μM). The catalytic efficiency (expressed in M^−1s^−1) was determined from the variation of the rate as a function of analog as shown in FIG. 2 (▾, NDPK-A, ♦ L55H, ● N115S, ▪ L55H-N115S).\n(§2) The activity assays were performed at the pre-steady state level.\n(§3) R, the specificity change, is the ratio of the catalytic efficiencies (for analog versus natural nucleotide) of the mutant compared to the wild type enzyme.\n(§4) Wild type human NDPK-A and the mutants were expressed and purified according to Schneider et al., 2000, Mol Pharm. Recombinant wild type and mutant Dd-NDPK were obtained as described (Schneid, 1998a), except for N119Y NDP kinase which was partially purified by Q sepharose FF chromatography. Each protein was characterized by […] electrophoresis. The concentration of 17 kDa subunits of the enzyme was either determined by Bradford assay ([…]) or using an absorbance coefficient of ΔA^280=1.249 for a 1 mg/mL solution of human wild type and N115S NDPK-A, and =0.55 for wild type and mutant N119S, N119T Dd-NDP kinases, respectively.\n(§5) As the diphosphate form of analogs were not always available, the triphosphate analogs were used to study phosphate transfer in reaction as in Scheme I. Experiments were performed with an Hi-Tech DX2 microvolume stopped-flow reaction (Schneider, 1998) at Aexc=296 nm (for Ado derivatives) or […] (for other nucleotides), 2 mm excitation slit and a 320 nm cutoff filter at the emission. After mixing NDPK (1 μM) and NTP or an analogTP (10-500 μM), the intrinsic protein fluorescence was recorded for 10-200 sec. In each experiment, 400 pairs of data were recorded, and the data from 3-4 identical experiments were averaged and fitted to a number of non-linear analytical equations using the software provided by Hi-Tech.\n(§6) The data were analyzed using the reaction scheme: [drawing 1]\n(§7) In both the forward and the reverse reactions, the product concentration remains very low, thus the product binding can be neglected, and the observed single step could be attributed to the phosphotransfer (Schneider, 1998). The rate of this observed single step is: [formula]\nand reaches a limiting value (k+2) at NTP saturation. […] Therefore, catalytic efficiencies of phosphorylation (CEphos=k+2/(k−1/k+1)=k+2/KS) were measured, which are equivalent to second order constants and allow a reliable comparison of a variety of NDP kinase substrates."}, "[4]": {"target": "T2, phosphorylated Dictyostelium N119S NDP kinase (Dictyostelium discoideum, UniProt P22887, N119S)", "T2 construct": "made in house", "assay": "Stopped-flow kinetics of phosphorylated enzyme with Acy-DP, N119S", "type": "biochemical", "description": "(§8) (A) Kinetics of reaction of phosphorylated Dictyostelium wild type and N119S NDP kinases by 100 μM Acyclovir diphosphate (Acy-DP). The phosphorylated enzyme was prepared with a stoichiometry #1 as described (Deville-Bonne 1996). The kinases were preincubated with ATP in excess in buffer T (50 mM Tris-HCl, pH 7.5, 5 mM MgCl2 and 75 mM KCl). The increase in fluorescence upon mixing the phospho-enzyme (1 μM, final concentration) with Acy-DP in buffer T at 20° C. was monitored with a stopped-flow. The solid lines represent the best fit of each curve to a monoexponential.\n(§9) (B) Concentration dependence of the rate constant on Acy-DP concentation. The pseudo-first order rate constant for the reaction (kobs) was plotted against Acy-DP.\nAcyclovir is an acyclic nucleoside analog of Gua used against Herpes Simplex Virus."}, "[5]": {"target": "T3, Dictyostelium discoideum NDP kinase (Dd-NDPK) variant N119S, SEQ ID NO: 1 (Dictyostelium discoideum, UniProt P22887, N119S)", "T3 construct": "made in house", "assay": "Pre-steady-state phosphotransfer, fluorescence stopped-flow", "type": "biochemical", "description": "as §8, §9\nAll numbers in italics have already been published (Schneider, 1998, 2000) The kinetic constants were measured at the pre-steady-state level using a fluorescence stopped-flow device. The binding constants were determined at equilibrium by recording the increase in fluorescence (Schneider, 2000). Values are the average of three independent determinations.\nas §4\nas §5, with “Hi-Tech. All curves fitted to single exponentials.” for “Hi-Tech.”\nas §6, §7\nand reaches a limiting value (k+2) at NTP saturation. Saturation could not be obtained with the concentrations of any NTP used here. Therefore, catalytic efficiencies of phosphorylation (CEphos=k+2/(k−1/k+1)=k+2/KS) were measured, which are equivalent to second order constants and allow a reliable comparison of a variety of NDP kinase substrates."}, "[6]": {"target": "T4, phosphorylated Dictyostelium wild type NDP kinase (Dictyostelium discoideum, UniProt P22887)", "T4 construct": "made in house", "T4 sequence (P22887 1-155)": "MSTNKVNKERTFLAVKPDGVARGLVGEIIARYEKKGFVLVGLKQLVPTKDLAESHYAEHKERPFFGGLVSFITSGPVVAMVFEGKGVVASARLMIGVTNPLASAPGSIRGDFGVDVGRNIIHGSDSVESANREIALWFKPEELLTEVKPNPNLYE", "assay": "Stopped-flow kinetics of phosphorylated enzyme with Acy-DP, wild type", "type": "biochemical", "settings": "phospho-enzyme 1 μM, buffer T, 20° C.", "description": "as §8, §9"}, "[7]": {"target": "T3, Dictyostelium discoideum NDP kinase (Dd-NDPK) variant N119S, SEQ ID NO: 1", "assay": "Steady-state kinetics with ATP and dTDP, coupled enzymes", "type": "biochemical", "settings": "dTDP", "description": "(§10) First, by site-directed mutagenesis, a limited set of amino acid substitutions (Ser, Thr, or Tyr) at the position of Asn 119 were introduced into the active site of Dd-NDPK. The three mutant proteins were expressed and purified to homogeneity, except N119Y, which was found unstable and poorly active (0.05% of wild type activity).\n(§11) The activity of NDP kinase was measured at 20° C. with ATP and dTDP as substrates using coupled enzymes (pyruvate kinase and lactate dehydrogenase) (Lascu 1993). One unit is the amount of enzyme that catalyzes the phosphotransfer of 1 μmol/min under standard conditions: [ATP]=1 mM, [dTDP]=0.2 mM. Rate constants (kcat) and Michaelis constants (Km) were determined from initial velocities for two different constant ratios of nucleotide [dTDP]/[ATP]=0.05 0.1 with [ATP] varying from 0.2 to 2 mM. kcat is expressed by enzyme subunit. The ratio of the ^apparentkcat/^apparentKM at a given concentration of the other substrate is equal to the true value of kcat/KM for a ping-pong enzyme."}, "[8]": {"target": "T5, Dictyostelium discoideum NDP kinase (Dd-NDPK) variant N119T (Dictyostelium discoideum, UniProt P22887, N119T)", "T5 construct": "made in house", "assay": "Steady-state kinetics with ATP and dTDP, coupled enzymes; reactivity for analogs", "type": "biochemical", "settings": "dTDP", "description": "as §10, §11"}, "[9]": {"assay": "Steady-state NDP kinase activity, coupled enzymes (pyruvate kinase, lactate dehydrogenase)", "type": "biochemical", "settings": "for specific activity: standard conditions: [ATP]=1 mM, [dTDP]=0.2 mM, 20° C.", "description": "as §11"}, "[10]": {"assay": "Human NDPK-A mutants, summary over several nucleotide analogs compared to natural nucleotides", "type": "biochemical", "description": "as §2, §3\nThe mutants described so far show altered specificity for antiviral drugs and natural nucleotides. Such a switch is usually defined as R, the specificity change, reflecting the ability of a mutant enzyme to prefer the analog rather than the natural nucleotide according to the expression: [formula]\nwhere R is the ratio of the specificity factors of the mutant compared to the original enzyme, with the specificity factor of an enzyme being defined as the ratio of the catalytic efficiencies (CE=k2/KS) for a nucleotide analog and the natural nucleotide."}, "[11]": {"assay": "Pre-steady-state phosphotransfer of human NDPK-A and mutants with d4T-TP", "type": "biochemical", "settings": "ratio of catalytic efficiencies", "description": "as §1\nThe intrinsic fluorescence properties of the three mutants were not affected by the mutations and were quenched upon phosphorylation of the catalytic His, as observed with wild type NDP kinase (Deville-Bonne, 1996). […]\nas §5, with “Hi-Tech. […]” for “Hi-Tech.”"}, "[12]": {"assay": "Reactivity of Dd-NDPK Asn 119 mutants for nucleotide analogs", "type": "biochemical", "settings": "Dd-NDPK mutant versus wild type", "excerpt": "as §10"}, "[13]": {"settings": "identical concentrations of Acy-DP"}},
  "data": [
    {"molecule": "Cc1cn([C@H]2C[C@H](N=[N+]=[N-])[C@@H](CO)O2)c(=O)[nH]c1=O", "note": "[AZT]", "values": [
      {"measurement": "viable cells", "setting": "[1]; AZT 5 and 10 ng/ml, double mutant versus wild type enzyme or N115S mutant", "value": "fewer viable cells"},
      {"measurement": "sensitization to AZT", "setting": "[1]; E. coli transfected with the double mutant enzyme", "value": "increased sensitization to AZT"},
      {"measurement": "sensitivity to AZT", "setting": "[2]", "value": "less sensitive to AZT"},
      {"measurement": "enhancement of ability to phosphorylate", "setting": "[3]", "value": "200-300 times"}
    ]},
    {"molecule": "Nc1nc2c(ncn2COCCOP(=O)(O)OP(=O)(O)O)c(=O)[nH]1", "note": "[Acy-DP, Acyclovir diphosphate]", "values": [
      {"measurement": "times faster phosphorylation by N119S NDP kinase than wild type enzyme", "setting": "[4]; [13]", "value": "seven"},
      {"measurement": "apparent second order constant, N119S mutant", "setting": "[4]; phospho-enzyme 1 μM, buffer T, 20° C.", "value": "4,500 M^−1s^−1"},
      {"measurement": "improvement of catalytic efficiency of phosphorylation by the mutation", "setting": "[5]; from [Acy-DP] dependency of kobs", "value": "seven fold"},
      {"measurement": "phosphorylation rate relative to wild type enzyme", "setting": "[5]; [13]", "value": "seven times faster"},
      {"measurement": "apparent second order constant, wild type NDP kinase", "setting": "[6]", "value": 670, "unit": "M⁻¹ s⁻¹"}
    ]},
    {"molecule": "Cc1cn([C@H]2C[C@H](O)[C@@H](COP(=O)(O)OP(=O)(O)O)O2)c(=O)[nH]c1=O", "note": "[dTDP]", "values": [
      {"measurement": "kcat, times lower than wild type enzyme", "setting": "[7]", "value": "ten times lower"},
      {"measurement": "effect on KM", "setting": "[7]; versus wild type", "value": "little effect on KM"},
      {"measurement": "kcat, times lower than wild type enzyme", "setting": "[8]", "value": "three"},
      {"measurement": "effect on KM", "setting": "[8]; versus wild type", "value": "little effect on KM"}
    ]},
    {"molecule": "L55H-N115S: double mutant human NDPK-A, Leu 55 to His and Asn 115 to Ser; SEQ ID NO: 3", "values": [
      {"measurement": "specific activity", "setting": "[9]", "value": 240, "unit": "U/mg"},
      {"measurement": "increment in activity with analogs versus NDPK-A", "setting": "[10]; catalytic efficiencies of Table II", "value": "80-100 fold"},
      {"measurement": "times more slowly / fold less reaction with d4T-TP than with dTTP", "setting": "[11]", "value": "eight"}
    ]},
    {"molecule": "N115S: human NDPK-A with Asn 115 changed into Ser; SEQ ID NO: 2", "values": [
      {"measurement": "steady-state activity relative to NDPK-A", "setting": "[9]; ATP and dTDP", "value": "1/10"},
      {"measurement": "specific activity", "setting": "[9]", "value": 140, "unit": "U/mg"},
      {"measurement": "specificity change (R), switch in specificity over analogs", "setting": "[10]; analog versus natural nucleotide, mutant versus NDPK-A", "value": "around 100"}
    ]},
    {"molecule": "N119T: Dd-NDPK with Thr at the position of Asn 119 (protein, UniProt P22887 1-155, looked up, variant N119T) Nucleoside diphosphate …: MSTNKVNKERTFLAVKPDGVARGLVGEIIARYEKKGFVLVGLKQLVPTKDLAESHYAEHKERPFFGGLVSFITSGPVVAMVFEGKGVVASARLMIGVTNPLASAPGSIRGDFGVDVGRTIIHGSDSVESANREIALWFKPEELLTEVKPNPNLYE", "values": [
      {"measurement": "enzyme reactivity for analogs", "setting": "[12]", "value": "without effect"}
    ]},
    {"molecule": "N119S: Dd NDP kinase mutated at position 119, asparagine to serine; SEQ ID NO: 1 (protein, UniProt P22887 1-155, looked up, variant N119S) Nucleoside diphosphate …: MSTNKVNKERTFLAVKPDGVARGLVGEIIARYEKKGFVLVGLKQLVPTKDLAESHYAEHKERPFFGGLVSFITSGPVVAMVFEGKGVVASARLMIGVTNPLASAPGSIRGDFGVDVGRSIIHGSDSVESANREIALWFKPEELLTEVKPNPNLYE", "values": [
      {"measurement": "catalytic constant kcat, times lower than the wild type enzyme", "setting": "[9]; natural substrates such as dTDP, steady state, Dd-NDPK", "value": "ten"},
      {"measurement": "enzyme reactivity for analogs", "setting": "[12]", "value": "improvement"}
    ]}
  ]
}
